Measurements: patent US9604923B2 (H. LEE MOFFITT CANCER CENTER AND RESEARCH INSTITUTE, INC., priority 2006, dated 2017)

How the values were obtained:
STAT3 = STAT3 (Mus musculus, UniProt P42227); test: Inhibition of STAT3 dimerization, EMSA assay; assay type: binding; parameters: endogenous in cells; host or cells: nuclear extracts per the general EMSA method
Stat3:3 = target: T1, Stat3:3 (Mus musculus, UniProt P42227); test: STATs DNA-binding activity in vitro, EMSA with hSIE probe; conditions: for IC50: Table 4, read-out: IC50 values for the inhibition of STATs DNA-binding activity in vitro, Stat3:3; for selectivity among STAT family members, in words: nuclear extracts of EGF-stimulated NIH3T3/hEGFR
T1 construct: endogenous in cells; host or cells: NIH3T3/v-Src or EGF-stimulated NIH3T3/hEGFR mouse fibroblasts, nuclear extracts
T1 sequence (P42227 2-770 limits assumed): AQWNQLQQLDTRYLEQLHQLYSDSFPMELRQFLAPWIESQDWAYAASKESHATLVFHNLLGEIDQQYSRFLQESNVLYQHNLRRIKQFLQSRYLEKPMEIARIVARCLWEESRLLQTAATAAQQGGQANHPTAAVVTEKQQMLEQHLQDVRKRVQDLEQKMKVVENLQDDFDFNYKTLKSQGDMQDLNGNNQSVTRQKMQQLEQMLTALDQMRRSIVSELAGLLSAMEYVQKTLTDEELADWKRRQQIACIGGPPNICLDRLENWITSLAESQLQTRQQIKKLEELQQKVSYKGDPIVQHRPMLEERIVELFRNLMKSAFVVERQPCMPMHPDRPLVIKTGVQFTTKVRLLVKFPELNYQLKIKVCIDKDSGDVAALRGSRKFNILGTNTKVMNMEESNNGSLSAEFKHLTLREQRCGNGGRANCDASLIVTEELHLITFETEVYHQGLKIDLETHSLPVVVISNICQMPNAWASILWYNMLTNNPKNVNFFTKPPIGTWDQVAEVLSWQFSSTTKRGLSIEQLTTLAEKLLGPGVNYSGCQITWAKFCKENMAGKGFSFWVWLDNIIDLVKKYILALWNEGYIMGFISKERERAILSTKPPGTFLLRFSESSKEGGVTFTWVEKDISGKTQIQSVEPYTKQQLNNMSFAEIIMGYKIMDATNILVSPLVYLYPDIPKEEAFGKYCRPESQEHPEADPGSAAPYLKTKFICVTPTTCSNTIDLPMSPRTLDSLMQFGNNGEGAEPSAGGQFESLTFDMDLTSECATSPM

Stat1:1 = target: T2, Stat1:1 (Mus musculus, UniProt P42225); test: STATs DNA-binding activity in vitro, EMSA; conditions: Table 4; read-out: IC50 values for the inhibition of STATs DNA-binding activity in vitro, Stat1:1
T2 construct: endogenous in cells; host or cells: EGF-stimulated NIH3T3/hEGFR mouse fibroblasts, nuclear extracts
T2 sequence (P42225 2-749 limits assumed): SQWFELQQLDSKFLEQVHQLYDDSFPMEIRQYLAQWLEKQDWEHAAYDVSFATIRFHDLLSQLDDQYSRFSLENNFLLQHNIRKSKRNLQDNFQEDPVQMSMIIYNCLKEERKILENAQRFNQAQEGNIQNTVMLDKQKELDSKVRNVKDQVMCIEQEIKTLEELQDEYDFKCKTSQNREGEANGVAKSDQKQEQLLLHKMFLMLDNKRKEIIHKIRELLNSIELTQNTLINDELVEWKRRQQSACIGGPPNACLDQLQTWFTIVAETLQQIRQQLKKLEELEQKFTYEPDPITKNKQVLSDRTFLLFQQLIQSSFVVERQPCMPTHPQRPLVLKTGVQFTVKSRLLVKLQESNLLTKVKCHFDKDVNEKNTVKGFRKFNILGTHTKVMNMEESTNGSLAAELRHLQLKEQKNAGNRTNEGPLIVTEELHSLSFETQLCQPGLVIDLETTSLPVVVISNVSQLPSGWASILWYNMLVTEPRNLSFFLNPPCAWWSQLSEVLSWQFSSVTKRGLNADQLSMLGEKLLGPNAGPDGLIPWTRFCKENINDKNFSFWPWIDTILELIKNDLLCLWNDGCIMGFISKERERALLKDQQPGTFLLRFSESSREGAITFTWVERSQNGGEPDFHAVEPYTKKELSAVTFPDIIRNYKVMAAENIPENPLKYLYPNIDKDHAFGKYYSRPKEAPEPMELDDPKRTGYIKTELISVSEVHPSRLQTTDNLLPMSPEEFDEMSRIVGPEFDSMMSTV

Stat5:5 = test: STATs DNA-binding activity in vitro, EMSA with MGFe probe; parameters: species or system mouse; conditions: Table 4; read-out: IC50 values for the inhibition of STATs DNA-binding activity in vitro, Stat5:5
Stat1:3 = target: T3, Stat1:3 (Mus musculus, UniProt P42227); test: STATs DNA-binding activity in vitro, EMSA with hSIE probe; conditions: Table 4; read-out: IC50 values for the inhibition of STATs DNA-binding activity in vitro, Stat1:3
T3 construct: endogenous in cells; host or cells: EGF-stimulated NIH3T3/hEGFR mouse fibroblasts, nuclear extracts
T3 sequence (P42227 2-770 limits assumed): as the sequence (P42227 2-770 limits assumed) above

STAT3, sequence (P42227 2-770 limits assumed): as the sequence (P42227 2-770 limits assumed) above

SMILES	IC50 (STAT3)	inhibition of Stat3 DNA-binding activity, in words (Stat3:3)	IC50 (Stat3:3)	IC50 (Stat1:1)	IC50 (Stat5:5)	IC50 (Stat1:3)	selectivity among STAT family members, in words (Stat3:3)
Cc1ccc(S(=O)(=O)OCC(=O)Nc2ccccc2)cc1 [Compound 6, 2-Oxo-2-(phenylamino)ethyl 4-methylbenzenesulfonate]	> 500 µM	–	–	–	–	–	–
Cc1ccc(S(=O)(=O)OCC(=O)Nc2ccc(C#N)cc2)cc1 [Compound 7, 2-(4-Cyanophenylamino)-2-oxoethyl 4-methylbenzenesulfonate]	> 500 µM	–	–	–	–	–	–
Cc1ccc(S(=O)(=O)OCC(=O)Nc2ccc(S(N)(=O)=O)cc2)cc1 [Compound 8, 2-Oxo-2-(4-sulfamoylphenylamino)ethyl 4-methylbenzenesulfonate]	> 500 µM	–	–	–	–	–	–
Cc1ccc(S(=O)(=O)NCC(=O)Nc2ccc(C(=O)O)c(O)c2)cc1 [Compound 11]	> 500 µM	–	–	–	–	–	–
O=C(COS(=O)(=O)c1ccc(-c2ccc(Cl)cc2)cc1)Nc1ccc(C(=O)O)c(O)c1 [Compound 15, 4-(2-(4′-Chlorobiphenyl-4-ylsulfonyloxy)acetamido)-2-hydroxybenzoic acid]	> 500 µM	–	–	–	–	–	–
O=C(COS(=O)(=O)c1ccc(-c2ccccc2)cc1)Nc1ccc(C(=O)O)cc1 [Compound 20, 4-(2-(Biphenyl-4-ylsulfonyloxy)acetamido)benzoic acid]	> 500 µM	–	–	–	–	–	–
O=C(COCc1ccccc1)Nc1ccc(C(=O)O)cc1 [Compound 22, 4-(2-(Benzyloxy)acetamido)benzoic acid]	> 500 µM	–	–	–	–	–	–
O=C(COCc1ccccc1)Nc1ccc(C(=O)O)c(O)c1 [Compound 23, 4-(2-(Benzyloxy)acetamido)-2-hydroxybenzoic acid]	> 500 µM	–	–	–	–	–	–
O=C(CCS(=O)(=O)c1ccccc1)Nc1ccc(C(=O)O)c(O)c1 [Compound 24, 4-(3-(Phenylsulfonyl)propanamido)-2-hydroxybenzoic acid]	< 500 µM	–	–	–	–	–	–
O=C(CCS(=O)(=O)c1ccccc1)Nc1ccc(C(=O)O)cc1 [Compound 25, 4-(3-(Phenylsulfonyl)propanamido)benzoic acid]	< 500 µM	–	–	–	–	–	–
O=C(CCCc1ccccc1)Nc1ccc(C(=O)O)cc1 [Compound 27, 4-(4-Phenylbutanamido)benzoic acid]	> 500 µM	–	–	–	–	–	–
N#Cc1ccc(NC(=O)CNS(=O)(=O)c2ccc(-c3ccccc3)cc2)cc1 [Compound 28, 2-(Biphenyl-4-ylsulfonamido)-N-(4-cyanophenyl)acetamide]	> 500 µM	–	–	–	–	–	–
O=C(CNS(=O)(=O)c1ccc(-c2ccccc2)cc1)Nc1ccc(S(=O)(=O)O)cc1 [Compound 29, 4-(2-(Biphenyl-4-ylsulfonamido)acetamido)benzenesulfonic acid]	> 500 µM	–	–	–	–	–	–
NS(=O)(=O)c1ccc(NC(=O)CNS(=O)(=O)c2ccc(-c3ccccc3)cc2)cc1 [Compound 30, 2-(Biphenyl-4-ylsulfonamido)-N-(4-sulfamoylphenyl)acetamide]	> 500 µM	–	–	–	–	–	–
O=C(CNS(=O)(=O)c1ccc(-c2ccc(Cl)cc2)cc1)Nc1ccc(C(=O)O)cc1 [Compound 31]	> 500 µM	–	–	–	–	–	–
O=C(CNS(=O)(=O)c1ccc(-c2ccccc2)cc1)Nc1ccc(C(=O)O)cc1 [Compound 32]	> 500 µM	–	–	–	–	–	–
Cc1ccc(S(=O)(=O)NCC(CC(=O)Nc2ccccc2)c2ccc(Cl)cc2)cc1 (centres unmarked) [Compound 36, 3-(4-Chlorophenyl)-4-(4-methylphenylsulfonamido)-N-phenylbutanamide]	< 500 µM	–	–	–	–	–	–
CCOC(=O)c1ccc(NC(=O)CCc2ccc3ccccc3c2)cc1 [Compound 69, Ethyl 4-(3-(naphthalen-2-yl)propanamido)benzoate]	> 500 µM	–	–	–	–	–	–
O=C(CCc1ccccc1)Nc1ccc(C(=O)O)cc1 [Compound 72, 4-(3-Phenylpropanamido)benzoic acid]	> 500 µM	–	–	–	–	–	–

SMILES	IC50 (STAT3)	inhibition of Stat3 DNA-binding activity, in words (Stat3:3)	IC50 (Stat3:3)	IC50 (Stat1:1)	IC50 (Stat5:5)	IC50 (Stat1:3)	selectivity among STAT family members, in words (Stat3:3)
O=C(CCc1ccccc1)Nc1ccc(C(=O)O)c(O)c1 [Compound 73, 4-(3-Phenylpropanamido)-2-hydroxybenzoic acid]	> 500 µM	–	–	–	–	–	–
COC(=O)c1ccc2cc(C(=O)Nc3cc(C(=O)O)ccc3O)ccc2c1 [Compound 75, 4-hydroxy-3-(6-(methoxycarbonyl)-2-naphthamido)benzoic acid]	< 500 µM	–	–	–	–	–	–
O=C1C=C(Nc2ccc(S(=O)(=O)Nc3ccccn3)cc2)C(=O)C=C1Nc1ccc(S(=O)(=O)Nc2ccccn2)cc1 [NSC 11421]	–	notable potent inhibitors	80 µM	105 µM	221 µM	145 µM	–
O=C1c2ccccc2-c2ccc(N(Cc3ccc([N+](=O)[O-])cc3)Cc3ccc([N+](=O)[O-])cc3)cc21 [NSC 24056]	–	–	245 µM	267 µM	235 µM	256 µM	–
C=CC1=C(C)/C(=C/c2[nH]c(Cc3[nH]c(/C=C4\NC(=O)C(C)=C4C=C)c(C)c3CCC(=O)O)c(CCC(=O)O)c2C)NC1=O [NSC 26685]	–	–	85 µM	95 µM	125 µM	68 µM	–
O=C(O)c1cc(O)c(O)c(OC(=O)c2cc(O)c(O)c(O)c2CNc2ccc3cc(S(=O)(=O)O)cc(S(=O)(=O)O)c3c2)c1 [NSC 42067]	–	Potent inhibition	65 µM	197 µM	88 µM	86 µM	preferentially inhibit Stat3 and Stat5 over that of Stat1
CC(CCC(=O)O)(c1ccc(OC(=O)Nc2ccccc2Cl)cc1)c1ccc(OC(=O)Nc2ccccc2Cl)cc1 [NSC 51926]	–	–	292 µM	300 µM	> 300 µM	300 µM	–
O=C(Nc1cccc(NC(=O)C(=O)O)c1)Oc1ccccc1 [NSC 71906]	–	–	295 µM	225 µM	285 µM	258 µM	–
Cc1cc(N=Nc2ccc(-c3ccc(N=Nc4ccc(O)c(C(=O)O)c4)cc3)cc2)c(N)c(N=Nc2cc(C(=O)O)ccc2Cl)c1N.[Na+] [NSC 75912]	–	Potent inhibition	160 µM	72 µM	> 300 µM	104 µM	preferentially inhibits Stat1 over Stat3 or Stat5
Cc1cc(N=Nc2ccc(-c3ccc(N=Nc4ccc(O)c(C(=O)O)c4)cc3)cc2)c(N)c(N=Nc2cccc(OCC(=O)O)c2)c1N [NSC 75914]	–	–	276 µM	113 µM	> 300 µM	263 µM	–
O=C(OC1COC(n2c(=O)oc3cc([N+](=O)[O-])ccc32)C(OC(=O)c2ccccc2)C1OC(=O)c1ccccc1)c1ccccc1 (centres unmarked) [NSC 87849]	–	–	> 300 µM	> 300 µM	> 300 µM	> 300 µM	–
CN=C(Nc1ccccn1)c1ccc(NC(=O)c2ccc(C(=O)Nc3ccc(C(=NC)Nc4ccccn4)cc3)cc2)cc1 [NSC 90438]	–	–	> 300 µM	> 300 µM	> 300 µM	> 300 µM	–
CC(C)NC(=O)c1cc(NC(=O)c2ccc(C(=O)Nc3cc(C(=O)NC(C)C)cc(C4=NCCN4)c3)cc2)cc(C2=NCCN2)c1 [NSC 101595]	–	–	275 µM	> 300 µM	288 µM	> 300 µM	–
O=C(O)c1cc(N=C2C=CC(=C(c3ccccc3)c3ccc(Nc4ccc(Cl)c(C(=O)O)c4)cc3)C=C2)ccc1Cl [NSC 117907]	–	–	202 µM	> 300 µM	> 300 µM	292 µM	–
O=C(/C=C/c1ccccc1)NC(=S)Nc1ccc(C(=O)O)cc1 [NSC 205965]	–	–	225 µM	253 µM	255 µM	256 µM	–
CCCCCCCCCCCC(=O)NC(=S)Nc1ccc(C(=O)O)cc1 [NSC 216360]	–	–	220 µM	> 300 µM	> 300 µM	290 µM	–
CCOc1cccc2c(NCCCCCCCCNc3c4ccccc4nc4c(OCC)cccc34)c3ccccc3nc12 [NSC 263435]	–	notable potent inhibitors	25 µM	50 µM	25 µM	40 µM	–
N#Cc1cc([N+](=O)[O-])ccc1NC(=O)C(=O)Nn1c(=S)[nH]c2ccccc2c1=O [NSC 645885]	–	–	245 µM	205 µM	250 µM	250 µM	–
CC(=O)NNc1nc(C)c(C(/C=C/c2cccc([N+](=O)[O-])c2)=N/NC(=S)NN)s1 [NSC 647608]	–	–	295 µM	> 300 µM	> 300 µM	> 300 µM	–
